The nature of one series: logP by HPLC on reversed-phase columns (C 18), EEC Directive 79/831 Annex V.A8. In kind it is physicochemical. The note with it: method marker [a]; footnote not given.
With `C=CCNc1nc(Nc2ccccc2)ncc1Cl.Cl` [Example 66], the logP is 1.68[a]. Regarding `CC(C)Oc1ccc(Nc2ncc(Cl)c(NCCO)n2)cc1.Cl` [Example 59], the logP is 1.48[a]. Turning to `CCN(CC)c1nc(Nc2ccccc2)ncc1Cl` [Example 60], the logP is 2.29[a].

Regarding `CCC(C)Nc1nc(Nc2ccccc2)ncc1Cl.Cl` (stereo not drawn) [Example 65], the logP was 2.04[a]. Same read-out and setting: the figure for `COCC(C)Nc1nc(Nc2ccc(S(=O)(=O)N(C)C)cc2)ncc1Cl` (stereo not drawn) [Example 16] is 2.25[a];; for `CC(C)(C)Nc1nc(Nc2ccc(S(=O)(=O)N3CCOCC3)cc2)ncc1Cl` [Example 64] it is 2.84[a]; for `COCC(C)Nc1nc(Nc2ccc(C(C)C)cc2)ncc1Cl` (stereo not drawn) [Example 9] it is 2.38[a]. For `CCC(CO)Nc1nc(Nc2ccc(S(=O)(=O)N(C)C)cc2)ncc1Cl` (stereo not drawn) [Example 22], the logP is 1.83[a]. With `CCC(CO)Nc1nc(Nc2cccc(Cl)c2)ncc1Cl` (stereo not drawn) [Example 17], the logP was 1.96[a]. Regarding `COCCNc1nc(Nc2ccc(N3CCN(C(=O)OC(C)(C)C)CC3)cc2)ncc1Cl` [Example 7], the logP is 2.05[a];. Same read-out and setting: the figure for `COCCNc1nc(Nc2ccc(OC(C)C)cc2)ncc1Cl` [Example 12] is 1.78[a]; for `COC(=O)c1ccc(Nc2ncc(Cl)c(N(C)C)n2)cc1` [Example 39] it is 2.47[a];. For the molecule `CC(C)(C)Nc1nc(Nc2ccccc2)ncc1Cl` [Example 34], the logP is 2.17[a].

Still in this series, the particulars now being: method marker [b] (compound 257: pH2.7).
For the molecule `CC(C)Nc1nc(Nc2cccc(C=O)c2)ncc1Cl` [Example 252], the logP was 1.86[b]. On the same count and under the same terms, the figure for `Clc1cnc(Nc2ccccc2)nc1NC1CCCCC1` [Example 259] is 2.53[b]; for `Brc1cnc(Nc2ccccc2)nc1NC1CCCC1` [Example 253] it is 2.47[b]. For `CCCCCNc1nc(Nc2ccccc2)ncc1Cl` [Example 278], the logP was 2.41[b]. As for `CN(C)S(=O)(=O)c1ccc(Nc2ncc(Cl)c(NC3CCCCC3)n2)cc1` [Example 263], the logP was 3.18[b]. For `Cc1cnc(Nc2ccccc2)nc1NC(C)(C)C` [Example 297], the logP was 1.48[b].

In the case of `CC(C)CCNc1nc(Nc2ccccc2)ncc1Cl` [Example 277], the logP is 2.37[b]. For the molecule `CSc1cccc(Nc2ncc(Cl)c(NC3CCCC3)n2)c1` [Example 256], the logP is 2.93[b].

Turning to `Clc1cccc(Nc2ncc(Cl)c(NC3CCCCC3)n2)c1` [Example 258], the logP is 3.81[b].

Turning to `COc1cc(Nc2ncc(Cl)c(NC3CCCCC3)n2)cc(OC)c1OC` [Example 261], the logP was 2.26[b].

The same series, now with this note: method marker [b]; footnote not given; compound 68 value matches logP (pH 2.3).
Regarding `COCC(C)Nc1nc(Nc2ccc3c(c2)OCO3)ncc1Br` (stereo not drawn) [Example 117], the logP is 1.64[b].

Consider `COCC(C)Nc1nc(Nc2cccc(C#N)c2)ncc1Cl` (stereo not drawn) [Example 83], for which the logP is 2.11[b]. On to `COCC(C)Nc1nc(Nc2cc(Cl)cc(Cl)c2)ncc1Cl` (stereo not drawn) [Example 94], for which the logP was 4.08[b].

As for `COCC(C)Nc1nc(Nc2ccc(F)cc2F)ncc1Cl` (stereo not drawn) [Example 81], the logP is 2.02[b]. Turning to `COCC(C)Nc1nc(Nc2ccc(N(C)C(C)=O)cc2)ncc1Br` (stereo not drawn) [Example 119], the logP was 1.56[b]. On the same count and under the same terms, under `COCC(C)Nc1nc(Nc2ccc(S(=O)(=O)N(C)C)cc2)ncc1Cl` (stereo not drawn) [Example 16] stands 2.26[b]; under `COCC(C)Nc1nc(Nc2ccc3sc(C)nc3c2)ncc1Cl` (stereo not drawn) [Example 105], 1.75[b]; under `COCC(C)Nc1nc(Nc2cccc(CC(=O)OC)c2)ncc1Br` (stereo not drawn) [Example 113], 1.87[b]. With `COCC(C)Nc1nc(Nc2ccc(-c3cscn3)cc2)ncc1Br` (stereo not drawn) [Example 112], the logP was 1.99[b].

For `COCCNc1nc(Nc2ccc(N3CCN(C(=O)OC(C)(C)C)CC3)cc2)ncc1Cl` [Example 7], the logP is 2.05[b]. Still for that read-out and setting: the figure for `COCC(C)Nc1nc(Nc2ccc(SC(F)(F)F)cc2)ncc1Cl` (stereo not drawn) [Example 88] is 3.81[b]; for `COCC(C)Nc1nc(Nc2ccc(Cl)c(S(C)(=O)=O)c2)ncc1Br` (stereo not drawn) [Example 76] it is 2.23[b].

Regarding `COCC(C)Nc1nc(Nc2ccc3c(c2)CCN3C(C)=O)ncc1Br` (stereo not drawn) [Example 79], the logP is 1.55[b]. With `COCC(C)Nc1nc(Nc2ccc(-c3cscn3)cc2)ncc1Cl` (stereo not drawn) [Example 90], the logP is 1.87[b]. For `COCC(C)Nc1nc(Nc2cccc(C#N)c2)ncc1Br` (stereo not drawn) [Example 108], the logP was 2.26[b].

The series is the same for the next values; noted with them: method marker [c].
As for `CC(C)Nc1nc(Nc2cccc(C=O)c2)ncc1Cl` [Example 252], the logP is 3.06[c];.

The series is the same for the next values; noted with them: method marker [c]; footnote not given.
As for `COC(=O)c1ccc(Nc2ncc(Cl)c(N(C)C)n2)cc1` [Example 39], the logP was 3.3[c].

The same series, now with this note: pH 2.3, 0.1% aqueous phosphoric acid and acetonitrile.
Turning to `COCC(C)Nc1nc(Nc2ccc(S(=O)(=O)N(C)C)cc2)ncc1Cl` (stereo not drawn) [Example 16], the “logP [a]” value was determined as 2.25.

The series is the same for the next values; noted with them: pH 2.3, 0.1% aqueous phosphoric acid and acetonitrile; read-out: logP [a].
Take `CCCCN(C)c1nc(Cl)ncc1Cl` [Example V-28]: the chromatographic logP stood at 3.89.

The series is the same for the next values; noted with them: pH 2.3, logP [a].
`CCN(C)c1nc(Cl)ncc1Cl` [Example V-19, 2,5-dichloro-N-ethyl-N-methylpyrimidine-4-amine] yielded a chromatographic logP of 2.68. As for `CCNc1nc(Cl)ncc1Cl` [Example V-20, 2,5-dichloro-N-ethylpyrimidine-4-amine], the chromatographic logP is 1.93.

The molecule `N#CCNc1nc(Cl)ncc1Cl` [Example V-8, [(2,5-dichloropyrimidin-4-yl)amino]acetonitrile] gave a chromatographic logP of 1.27.

Still in this series, the particulars now being: reversed-phase HPLC column (C 18), pH 2.3, pH 2.3, 0.1% aqueous phosphoric acid and acetonitrile; read-out: logP [a].
On to `C=CCN(C)c1nc(Cl)ncc1Cl` [Example V-33, 2,5-dichloro-N-methyl-N-(prop-2-en-1-yl)pyrimidine-4-amine], for which the chromatographic logP stood at 2.98. Same read-out and setting: under `CC(C)c1cccc(Nc2ncc(C(F)(F)F)c(Cl)n2)c1` [VIII-4, 4-Chloro-N-[3-(propan-2-yl)phenyl]-5-(trifluoromethyl)pyrimidine-2-amine] stands 4.87. As to `CC(C)(C)Nc1nc(Cl)ncc1Cl` [Example V-17, N-t-butyl-2,5-dichloropyrimidine-4-amine], the chromatographic logP is 3.22.

In the case of `OCCNc1nc(Cl)ncc1Cl` [Example V-5, 2,5-dichloro-N-(2-hydroxyethyl)pyrimidine-4-amine], the chromatographic logP worked out at 0.97. Same read-out and setting: under `N#Cc1cnc(Nc2ccccc2)nc1Cl` [VIII-3, 4-Chloro-2-(phenylamino)pyrimidine-5-carbonitrile] stands 2.66; under `CCN(C)S(=O)(=O)Cc1cccc([N+](=O)[O-])c1` [IV-1, N-Ethyl-N-methyl-1-(3-nitrophenyl)methanesulphonamide], 2.05. `CC(NS(=O)(=O)Cc1cccc([N+](=O)[O-])c1)c1ccccc1` (stereo not drawn) [IV-3, N-(1-phenylethyl)-1-(3-nitrophenyl)methanesulphonamide]: the chromatographic logP worked out at 2.63. The same measure, in the same setting: the figure for `COCCNc1nc(Cl)ncc1Cl` [Example V-3, 2,5-dichloro-N-(2-methoxyethyl)pyrimidine-4-amine] is 1.65.

Staying with this series, now noted: values marked [a]; pH 2.3.
`CSCC(C)(C)Nc1nc(Nc2cccc(SC)c2)ncc1Cl` [Example 175]: the logP is 3.48[a];. The same measure, in the same setting: under `N#CCNc1nc(Nc2ccccc2)ncc1Cl` [Example 220] stands 1.62[a];; under `CSCC(C)(C)Nc1nc(Nc2ccccc2)ncc1Cl` [Example 174], 2.68[a];. The same measure, in the same setting: under `CSc1cccc(Nc2ncc(Cl)c(NCC#N)n2)c1` [Example 221] stands 2.27[a]; under `COCC(C(C)C)N(C)c1nc(Nc2ccccc2)ncc1Br` (stereo not drawn) [Example 231], 2.47[a].

The same series, now with this note: values marked [b]; footnote not given.
Regarding `CC(=O)Nc1ccc(Nc2ncc(Cl)c(NC(C)C)n2)cc1` [Example 189], the logP is 1.32[b]. Same read-out and setting: under `COCC(C)Nc1nc(Nc2cccc(C(=O)N(C)C)c2)ncc1Cl` (stereo not drawn) [Example 155] stands 1.47[b]; under `COCC(C)Nc1nc(Nc2cccc(NC=O)c2)ncc1Br` (racemic) [Example 132], 1.43[b]. The same measure, in the same setting: under `COCC(C)Nc1nc(Nc2ccc(C(=O)Nc3ccccc3)cc2)ncc1Cl` (racemic) [Example 141] stands 1.8[b]; under `COCC(Nc1nc(Nc2ccccc2)ncc1Cl)C(C)C` (stereo not drawn) [Example 176], 2.33[b]. The same measure, in the same setting: under `COC(=O)Nc1ccc(Nc2ncc(Cl)c(NC(C)C)n2)cc1` [Example 201] stands 1.53[b].

In the case of `COCC(C)Nc1nc(Nc2ccc(S(C)(=O)=O)cc2)ncc1Cl` (racemic) [Example 145], the logP is 1.85[b]. Same read-out and setting: under `COCC(C)Nc1nc(Nc2ccc(C(=O)CC#N)cc2)ncc1Br` (stereo not drawn) [Example 121] stands 2.23[b]; under `COCC(C)Nc1nc(Nc2cccc(NC(=O)OC)c2)ncc1Cl` (stereo not drawn) [Example 153], 1.59[b]; under `CCOC(=O)Nc1cccc(Nc2ncc(Cl)c(NC(C)C)n2)c1` [Example 216], 1.81[b]. `COCC(C)Nc1nc(Nc2ccc(N(C(C)=O)C3CCCCC3)cc2)ncc1Cl` (stereo not drawn) [Example 161]: the logP was 2.33[b]. Regarding `CC(C)Nc1nc(Nc2cccc(NC(=O)C(C)(C)C)c2)ncc1Cl` [Example 197], the logP was 1.91[b]. Consider `COc1ccc(Nc2ncc(Cl)c(NC(C)C)n2)cc1` [Example 183], for which the logP was 1.63[b].

For the molecule `CCN(C)S(=O)(=O)Cc1cccc(Nc2ncc(Cl)c(NC(C)C)n2)c1` [Example 243], the logP was 1.96[b]. Take `COCC(C)Nc1nc(Nc2ccc(N3C(=O)CN(C)C3=O)cc2)ncc1Cl` (stereo not drawn) [Example 227]: the logP is 1.41[b]. For `CC(C)Nc1nc(Nc2cccc(NC(=O)C3(C)CC3)c2)ncc1Cl` [Example 207], the logP was 1.78[b]. On to `COCC(C)Nc1nc(Nc2ccc(NC(=O)C(C)C)cc2)ncc1Cl` (stereo not drawn) [Example 169], for which the logP is 1.59[b].

For the molecule `CCOC(=O)Nc1cccc(Nc2ncc(Cl)c(NC(C)COC)n2)c1` (racemic) [Example 143], the logP is 1.78[b]. On the same count and under the same terms, under `COCC(C)Nc1nc(Nc2ccc(NC(C)=O)c(OC)c2)ncc1Cl` (racemic) [Example 140] stands 1.38[b].

Still in this series, the particulars now being: values marked [c]; footnote not given.
On to `CSCC(C)(C)Nc1nc(Nc2cccc(SC)c2)ncc1Cl` [Example 175], for which the logP is 4.59[c]. With `N#CCNc1nc(Nc2ccccc2)ncc1Cl` [Example 220], the logP is 2.2[c]. Regarding `CSCC(C)(C)Nc1nc(Nc2ccccc2)ncc1Cl` [Example 174], the logP is 4.18[c]. `CCN(C)S(=O)(=O)Cc1cccc(Nc2ncc(Cl)c(NC(C)C)n2)c1` [Example 243]: the logP is 3.18[c];.

These data come from patent US20110230478A1 (Bayer ScienceCrop AG, priority 2008, published 2011).
